Entries after “also recorded” stand apart in the source; their conditions may differ. Where two headings read alike, the source gives them in different places.
How the values were obtained:
[1] = pharmacodynamic (biologic) half-life; cited from earlier work
AVM-NKT cells = conditions: for Time after treatment at which AVM-NKT cells appear in peripheral blood: high doses of glucocorticoid receptor agonists
A20 B cell lymphoma = assay: A20 lymphoma study AVM_CANMOD_03 (dose response); assay type: in vivo, mouse
Description: In a second study (“AVM_CANMOD_03”), BALB/c mice (n=5 per group) were dosed with increasing concentrations of AVM0703 HED DP (7, 18, and 26 mg/kg) on Days 9, 16, 24, and 31 after tumor inoculation. Treatment started when the tumors were approximately […], as opposed to well-established tumors of 150 mm^3 as in study AVM_CANMOD_01.
Based on evidence of pseudogrowth in tumors from AVM0703-treated mice in study AVM_CANMOD_01, tumors (n=2 per group) were sent to HistoTox Labs for slicing and immunohistochemistry. Hematoxylin and eosin stains identified several regions of necrosis and the slides were scored from 0 to 5 depending on severity.

[2] = test system: peripheral blood mononuclear cells or single cell splenocytes; assay: In vitro apoptosis of mouse blood mononuclear cells and splenocytes; assay type: cell-based; conditions: up to 500 micromolar; out to 72 hours
Description: Mononuclear cells from peripheral blood of naïve male C57Bl/6 mice or single cell splenocytes were incubated with equivalent concentrations of AVM0703 as the peak blood concentrations of acute high dose AVM0703 achieve in vivo.
Blood and spleens were taken from naïve C57B16 mice. Mononuclear cells were isolated from blood and single cell splenocytes were isolated from the spleen. […] Therefore, the complete in vivo T and B lymphocyte ablation appears to be mediated by the AVM-NKT, and not a receptor based mechanism such as activation of a glucocorticoid receptor.

[3] = test system: CD3high, CD45dim, CD49b+ cells; assay: Venetoclax pre-treatment before high dose DSP in female NOD mice; assay type: in vivo, mouse; conditions: 48 hours
Description: Female NOD mice of 10 weeks of age are treated with 12.5 mg/kg up to 50 mg/kg venetoclax 6-18 hours before oral gavage of a HED 30 mg/kg DSP dose. […] CD3high, CD45dim, CD49b+ cells are reduced from—70 cells/microliter with DSP alone to—40 cells/microliter with 12.5 mg/kg venetoclax pretreatment, to—20 cells/microliter with 25 mg/kg venetoclax pretreatment, to—15 cells/microliter with 50 mg/kg venetoclax pretreatment. Venetoclax is a Bcl-2 inhibitor.

female NOD mice = assay: Prevention or delay of hyperglycemia in spontaneously diabetic female NOD mice; assay type: in vivo, mouse
Description: Female NOD mice were ordered at 9 weeks of age.
Body weights and blood glucose levels were monitored weekly. Body condition was monitored three times per week. Oral glucose tolerance was determined in all surviving mice who reached 30 weeks of age. Remaining mice were necropsied and autoreactive lymphocytes in the pancreas and adjacent lymph nodes were determined by flow cytometry. Pancreatitis was determined by H&E staining (8 out of 15 per group). Pancreatic Beta cell surface area was measured by staining for insulin. […] Pancreas and pancreas lymph nodes were examined for autoreactive, insulin-specific CD4+ T cells by using a magnetic enrichment method together with tetramer reagents.

[4] = test system: peripheral blood lymphocytes
Description: For initial lymphodepletion studies, naïve C57Bl/6 mice were treated with 18 mg/kg HED DP by oral gavage. Male C57BL/6 mice were obtained from Taconic Bioscience (Germantown, N.Y.) and acclimated to laboratory conditions for at least one week. […] When mice reached study timepoint, they were euthanized as follows. Mice were anesthetized with isoflurane gas. Once anesthetized, blood was drawn via cardiac puncture and place immediately in heparin-lined microtubes. 10 mL of 5 U/mL of Heparin/PBS was used for infused by slow push for retrograde perfusion via the abdominal aorta to flush out all remaining blood from the vasculature. […] The remaining blood was sent to Phoenix Labs (Mukilteo, Wash.) for Complete Blood Counts and Clinical Chemistries

A20 cells = assay: In vitro apoptosis of A20 cells; assay type: cell-based, mouse; conditions: 72 hours after high dose dexamethasone treatment in vitro
[5] = high-dose dexamethasone, naïve mice

With `C[C@]12C=CC(=O)C=C1CC[C@@H]1[C@@H]2C(=O)C[C@@]2(C)[C@H]1CC[C@]2(O)C(=O)CO` [prednisone] as the compound, how does the Biologic half-life [1] read?
The Biologic half-life was “about 20 hours”.

For `C[C@@H]1C[C@H]2[C@@H]3CCC4=CC(=O)C=C[C@]4(C)[C@@]3(F)[C@@H](O)C[C@]2(C)[C@@]1(O)C(=O)CO` [dexamethasone base], which “Induction of AVM-NKT cells (dose escalation)” value (from here on “Induction … (dose escalation)”) (AVM-NKT cells; 15 mg/kg HED) is on record?
Its value is “particularly robust production”.

What about the “Induction … (dose escalation)” value (AVM-NKT cells; 6+6 mg/kg HED dosing schedule) of the same compound?
Its value is “particularly robust production”.

What about the “Induction … (dose escalation)” value (AVM-NKT cells; single dose between 6-12 mg/kg HED) of the same compound?
The value was “can induce AVM-NKT cells”.

Which results are given for `C[C@@H]1C[C@H]2[C@@H]3CCC4=CC(=O)C=C[C@]4(C)[C@@]3(F)[C@@H](O)C[C@]2(C)[C@@]1(O)C(=O)COP(=O)(O)O` [dexamethasone phosphate, reference compound]?
Tumor CD3 expression (immunohistochemistry) (A20 B cell lymphoma; 7, 18, 25 mg/kg DP vs placebo): visually decreased; Tumor NKp46 staining (A20 B cell lymphoma; 7, 18, 25 mg/kg DP vs placebo): visual increase; HistoTox Labs Necrosis H&E (0-5) (A20 B cell lymphoma; individual tumors, 18 mg/kg, tumor 158 mm^3 at dosing): greatest degree of necrosis; Apoptosis [2]: no in vitro apoptosis was observed

Which results are given for `CC1(C)CCC(CN2CCN(c3ccc(C(=O)NS(=O)(=O)c4ccc(NCC5CCOCC5)c([N+](=O)[O-])c4)c(Oc4cnc5[nH]ccc5c4)c3)CC2)=C(c2ccc(Cl)cc2)C1` [Venetoclax, venetoclax, reference compound]?
CD3high, CD45dim, CD49b+ cells mobilized into the blood ([3]; 12.5 mg/kg venetoclax 6-18 hours before HED 30 mg/kg DSP): 40 cells/microliter; CD3high, CD45dim, CD49b+ cells mobilized into the blood ([3]; 25 mg/kg venetoclax 6-18 hours before HED 30 mg/kg DSP): 20 cells/microliter; CD3high, CD45dim, CD49b+ cells mobilized into the blood ([3]; 50 mg/kg venetoclax 6-18 hours before HED 30 mg/kg DSP): 15 cells/microliter; First Onset of hyperglycemia (weeks of age) (female NOD mice; dosing from 10 weeks of age, AVM0703 single oral HED 18 or 30 mg/kg, cyclosporine 5 then 10 mg/kg twice weekly, venetoclax 25 mg/kg): 14 weeks of age; % Hyperglycemic at 22 wks of age (female NOD mice; same groups): 90%; Median Time to diabetes (days after 10 wks of age) (female NOD mice; same groups): 51 days

For `C[C@H]1C[C@H]2[C@@H]3CCC4=CC(=O)C=C[C@]4(C)[C@@]3(F)[C@@H](O)C[C@]2(C)[C@@]1(O)C(=O)CO` [betamethasone], which “Time after treatment at which AVM-NKT cells appear in peripheral blood” value (AVM-NKT cells) is on record?
The value was “around 48 hours”.

Which results are given for `C[C@@H]1C[C@H]2[C@@H]3CCC4=CC(=O)C=C[C@]4(C)[C@@]3(F)[C@@H](O)C[C@]2(C)[C@@]1(O)C(=O)CO` [dexamethasone]?
Time after treatment at which AVM-NKT cells appear in peripheral blood (AVM-NKT cells): around 48 hours; Time to induction of AVM-NKT cells in the spleen (AVM-NKT cells; normal mice, after dexamethasone dosing): ≤ 48 h; Platelet numbers ([4]; 18 mg/kg HED DP): spared; also recorded: does not affect; Number of live hematopoietic stem cells ([4]; 18 mg/kg HED DP, 6 hours to 35 days): does not significantly alter; Basophils [4, 5]: reduced only at the 6 hour time point; Eosinophils [4, 5]: reduced only at the 24 and 48 hour time points; HSCs and MSCs [4, 5]: spared or increased; RBCs [4, 5]: spared; Apoptosis of A20 cells (A20 cells): about 30%

Source: patent US20230096897A1, “Lymphocyte Population and Methods for Producing Same” (AVM Biotechnology, LLC, priority 2020, published 2023)
